Reference: patent publication US20110165266A1 (priority 2008, published 2011)

System: ASLV-A vector RCASBP(A)-AP
Type: cell-based, avian sarcoma and leukosis virus (ASLV-A)

[O-][Cl+2]([O-])O [chlorate]
influence on infection by ASLV-A vector: did not influence infection
